Measurements: US12564595B2, “Prophylactic and therapeutic pharmaceutical agent for HIV infectious diseases characterized by comprising combination of integrase inhibitor and anti-HIV agent” (Shionogi & Co., Ltd., priority 2019, dated 2026)

Key:
[1] = test system: HIV mutant strain 2 (E92Q/E138T/G140S/Q148H); test: Test Example 2: resistance evaluation test (HeLa-CD4 reporter), mutant strain 2; format: cell-based; settings: FC=EC50 of mutant strain/EC50 of wild strain; HeLa-CD4 cells
Procedure: (§1) A serial dilution series of test samples in 96-well microplates was prepared (50 […]).
(§2) 2.5×10^4/mL of HeLa-CD4 cell suspension was dispensed into each of the microplates containing test sample, in the amount of 100 μL/well, and HIV virus liquid (wild strain and mutant strain) was then dispensed in an amount of 50 μL/well. Mixing was performed using a plate mixer and culturing was performed for three days in a CO2 incubator. After removing the cultured supernatant of each well by suction, 100 μL of the cell solution buffer in the reporter measurement kit was dispensed thereto, and freezing was conducted in a refrigerator (−80° C.). The plates frozen in the refrigerator were defrosted at room temperature, then mixed using a plate mixer and centrifuged for 5 min at 1,200 rpm. The supernatant of each well was divided to 96-well microplates (BLACK) in the amount of 20 μL in each case. The chemiluminescence reagent in the reporter assay kit was dispensed in the amount of 100 μL in each case, and, after reacting for about 1 h at room temperature, the amount of luminescence was measured using a MicroBeta TRILUX.
(§3) The degree of resistance (fold change (FC)) of each mutant strain was also calculated using the following formula. FC=EC50 of mutant strain/EC50 of wild strain (Results)
(§4) The results of the example compounds relating to formula (I) of (A) are shown below. The […] in respect of mutant strain 1 (E138K/G140S/Q148H/N155H) and the FC in respect of mutant strain 2 (E92Q/E138T/G140S/Q148H) are shown in the Table.

[2] = Test Example 8: metabolic stability test; format: in vitro ADME, human
Procedure: The extent of metabolization of the compound according to the present invention in the liver was evaluated by reacting commercially available pooled human liver microsomes with the compound according to the present invention for a fixed time and calculating the remaining percentage by comparing the reaction sample with an unreacted sample.
The reaction (oxidative reaction) was conducted for 0 min or 30 min at 37° C. in the presence of 1 mmol/L of NADPH, in a 0.2 mL buffer solution containing 0.5 mg of human liver microsome protein/mL (50 mmol/L Tris-HCl pH 7.4, 150 mmol/L potassium chloride, 10 mmol/L magnesium chloride). After the reaction, 50 μL of reaction liquid were added to 100 μL of methanol/acetonitrile=1/1 (v/v) solution, mixed, and centrifuged for 15 minutes at 3000 rpm. The compound according to the present invention in the centrifuged supernatant was quantified using LC/MS/MS or solid phase extraction (SPE)/MS; the residual amount of the compound according to the present invention after the reaction was calculated, taking the amount of the compound at the 0 min reaction point as 100%.

[3] = test system: HIV mutant strain 1 (E138K/G140S/Q148H/N155H); test: Test Example 2: resistance evaluation test (HeLa-CD4 reporter), mutant strain 1; format: cell-based; settings: FC=EC50 of mutant strain/EC50 of wild strain; HeLa-CD4 cells
Procedure: as §1, §2, §3, §4

HIV [4] = test: microbe, parasite or virus in culture; format: cell-based; settings: Human immunodeficiency virus 1, MT4, 96 h, read-out: EC50 (50% HIV inhibition concentration), MT-4 cells, HIV, cultured four days, MTT; compounds of formula (I) of (A)
Procedure: A serial dilution series of test samples was prepared in 96-well microplates (50 μL/well).
100 μL/well in each case were dispensed onto plates having test samples of 2.5×10^5/mL MT-4 cell suspension, and HIV virus solution was then dispensed thereto in the amount of 50 μL/well. Mixing was performed using a plate mixer and culturing was performed for four days in a CO2 incubator. MTT (3-(4,5-dimethylthiazol-2-yl)-2,5-diphenyltetrazolium bromide) liquid was dispensed into each well in the amount of 30 μL in each case. The reaction was conducted for 1 h in a CO2 incubator. 150 μL of supernatant were removed from each well, taking care not to aspirate any cells. 150 μL of cell solution were added, and thorough mixing was performed with a plate mixer until all the cells had been dissolved. The optical absorbance of the mixed plates was measured at two wavelengths: 560 nm/690 nm, with a microplate reader.

HIV [5] = test: Test Example 3: test for confirmation of combined use effect; format: cell-based; set-up: key to D value (dosewise additivity value): <-0.1 synergy, -0.1 to 0.1 additive, >0.1 antagonism
Source text: The two compounds in respect of which the effect of combined use was desired to be examined were mixed in various ratios, and the anti-HIV activity (50% HIV inhibiting concentration) for each combination was found by the method of test example 1. […] A brief description of the method of calculating the D value is given below.
The D value that is found by evaluating the anti-HIV activity of respective combinations of M concentrations of compound X1 and N concentrations of compound X2 is calculated by the following mathematical expression 1.
The effect of combined use was evaluated in terms of the D value in accordance with the following criteria • −0.5 to −0.2: strong synergetic effect • −0.2 to −0.1: weak synergetic effect • […]: additive synergetic effect • 0.1 to 0.2: weak antagonism • 0.2 to 0.5: strong antagonism

[6] = pooled human liver microsomes, 30 min at 37° C., NADPH, compound concentration 0.5 μmol/L
[7] = combination with compound (B) Compound C (CAI)
[8] = combination with compound (B) GS-6207 (CAI)
[9] = combination with compound (B) GSK2838232 (maturation inhibitor)
[10] = combination with compound (B) Ramipzin (3TC) (polymerase inhibitor)

| SMILES | FC in respect of mutant strain 2 (E92Q/E138T/G140S/Q148H) [1] | Remaining percentage [2, 6] [%] | FC in respect of mutant strain 1 (E138K/G140S/Q148H/N155H) [3] | EC50 (HIV [4]) [nM] | also measured |
| --- | --- | --- | --- | --- | --- |
| CCN1C(=O)c2c(O)c(=O)c(C(=O)NCc3ccc(F)cc3F)cn2N2CC[C@@H](C)C[C@@H]12 [II-068] | 4.2 | 82.9 | 7 | 0.25 |  |
| CCN1C(=O)c2c(O)c(=O)c(C(=O)NCc3c(F)cc(F)cc3F)cn2N2[C@H](COC)CC[C@@H]12 [II-093] | 25 | 96.1 | 49 | 0.22 |  |
| CCN1C(=O)c2c(O)c(=O)c(-c3nnc(Cc4cc(F)c(F)cc4F)s3)cn2N2C[C@@H]3CC[C@@H](C3)[C@@H]12 [II-148] | 6.6 | 71.7 | 8.3 | 5.2 |  |
| C[C@@H]1CCC[C@H]2N(C)C(=O)c3c(O)c(=O)c(-c4nnc(Cc5ccc(F)cc5F)s4)cn3N12 [II-124] | 11 | 103 | 6.8 | 3.5 |  |
| COC[C@@H]1CC[C@H]2N(C)C(=O)c3c(O)c(=O)c(C(=O)NCc4c(F)cc(F)cc4F)cn3N12 [II-157] | 24 | 90 | 53 | 0.7 |  |
| CCN1C(=O)c2c(O)c(=O)c(-c3nnc(Cc4ccc(F)cc4)s3)cn2N2C[C@@H]3CC[C@@H](O3)[C@@H]12 [II-128] | 29 | 103 | 20 | 0.66 |  |
| CCN1C(=O)c2c(O)c(=O)c(-c3nnc(Cc4c(F)cc(F)cc4F)s3)cn2N2C[C@@H](C)C[C@@H]12 [II-112] | 7 | 90.5 | 4.7 | 1.9 |  |
| CCN1C(=O)c2c(O)c(=O)c(-c3nnc(Cc4ccc(F)cc4F)s3)cn2N2C[C@@H](C)CC[C@@H]12 [II-155] | 5.1 | 93 | 5.2 | 0.3 |  |
| C[C@@H]1CC[C@H]2N(C)C(=O)c3c(O)c(=O)c(-c4nnc(Cc5ccc(F)cc5F)s4)cn3N12 [II-113] | 6.5 | 85.3 | 7.2 | 0.66 |  |
| CCN1C(=O)c2c(O)c(=O)c(-c3nnc(Cc4c(F)cc(F)cc4F)s3)cn2N2[C@H](C)CCC[C@@H]12 [II-125] | 26 | 88.5 | 11 | 1.4 |  |
| COC[C@@H]1CC[C@H]2N(C)C(=O)c3c(O)c(=O)c(-c4nnc(Cc5c(F)cc(F)cc5F)s4)cn3N12 [II-151] | 17 | 94.6 | 27 | 0.37 |  |
| CN1C(=O)c2c(O)c(=O)c(-c3nnc(Cc4cccc(Cl)c4F)s3)cn2N2CCOC[C@@H]12 [II-122] | 25 | 102 | 30 | 0.24 |  |
| CCN1C(=O)c2c(O)c(=O)c(C(=O)NCc3cccc(Cl)c3F)cn2N2[C@H]3COCC3C[C@@H]12 (stereo partly shown) [II-052] | 16 |  | 22 | 0.27 | Remaining percentage ([2]; human, microsomes, 0.5 h, 0.5 μmol/L, pH 7.4): 61.6%; D value (dosewise additivity value) (HIV [5]; [7]): 0.038; effect of combined use (HIV [5]; [7]): Additive (−0.1 to −0.1: additive synergetic effect); D value (dosewise additivity value) (HIV [5]; combination with compound (B) Darunavin (PI)): −0.076; effect of combined use (HIV [5]; combination with compound (B) Darunavir (PI)): Additive (−0.1 to −0.1: additive synergetic effect); D value (dosewise additivity value) (HIV [5]; [8]): −0.003; effect of combined use (HIV [5]; [8]): Additive (−0.1 to −0.1: additive synergetic effect); D value (dosewise additivity value) (HIV [5]; [9]): −0.009; effect of combined use (HIV [5]; [9]): Additive (−0.1 to −0.1: additive synergetic effect); effect of combined use (HIV [5]; combination with compound (B) Lilpiperine (polymerase inhibitor)): Additive (−0.1 to −0.1: additive synergetic effect); D value (dosewise additivity value) (HIV [5]; [10]): −0.156; effect of combined use (HIV [5]; [10]): Weak synergy (−0.2 to −0.1: weak synergetic effect); D value (dosewise additivity value) (HIV [5]; combination with compound (B) Rilpivirine (polymerase inhibitor)): −0.020 |
| CCN1C(=O)c2c(O)c(=O)c(-c3nnc(Cc4c(F)cc(F)cc4F)s3)cn2N2CC[C@H](C)C[C@@H]12 [II-147] | 7.3 | 91.5 | 5.1 | 1.8 |  |
| CCN1C(=O)c2c(O)c(=O)c(-c3nnc(Cc4ccc(F)cc4F)s3)cn2N2C[C@@H]3CC[C@@H](C3)[C@@H]12 [II-130] | 3.9 | 92.9 | 2.5 | 0.66 |  |
| CN1C(=O)c2c(O)c(=O)c(-c3nnc(Cc4ccc(F)cc4F)s3)cn2N2C[C@@H]3CC[C@@H](C3)[C@@H]12 [II-138] | 11 | 93.9 | 15 | 0.14 |  |
| CCN1C(=O)c2c(O)c(=O)c(-c3nnc(Cc4ccc(F)cc4F)s3)cn2N2C[C@@H]3CC[C@@H](O3)[C@@H]12 [II-127] | 19 | 100 | 7.9 | 0.74 |  |
| CN1C(=O)c2c(O)c(=O)c(-c3nnc(Cc4c(F)cc(F)cc4F)s3)cn2N2C[C@@H]3CC[C@@H](C3)[C@@H]12 [II-149] | 12 | 96.5 | 14 | 0.6 |  |
| CCN1C(=O)c2c(O)c(=O)c(-c3nnc(Cc4c(F)cc(F)cc4F)s3)cn2N2C[C@@H]3CC[C@@H](C3)[C@@H]12 [II-131] | 3.5 | 83.4 | 2.3 | 0.66 |  |
